Reference: ChEMBL document CHEMBL5154827, “Discovery of S-217622, a Noncovalent Oral SARS-CoV-2 3CL Protease Inhibitor Clinical Candidate for Treating COVID-19” (J Med Chem, 2022)

Tests used:
SARS-CoV-2 [1] = test: In vivo antiviral activity against SARS CoV-2 Gamma strain (hCoV-19/Japan/TY7-501/202) harbouring spike protein K417T mutant intranasally inoculated in BALB/c mouse assessed as reduction in lung intrapulmonary viral titer administered orally immediately after viral infection and 12 hrs after infection measured after 24 hrs of post infection; type: functional, organism-based; conditions: Severe acute respiratory syndrome coronavirus 2, route po, DDE = dose-dependent effect
SARS-CoV-2 [2] = test: In vivo antiviral activity against SARS CoV-2 gamma strain (hCoV-19/Japan/TY7-501/202) harbouring spike protein K417T mutant intranasally inoculated in BALB/c mouse assessed as reduction in lung intrapulmonary viral titer at 16 to 32 mg/kg, po immediately after viral infection and 12 hrs after viral infection measured after 24 hrs of post infection; type: functional, Severe acute respiratory syndrome coronavirus 2; conditions: dose 16-32 mg/kg

**Q.** For Cn1cnc(Cn2c(=O)[nH]/c(=N\c3cc4cn(C)nc4cc3Cl)n(Cc3cc(F)c(F)cc3F)c2=O)n1, which Activity (SARS-CoV-2 [1]) is on record?
**A.** The Activity was “Dde”.

**Q.** What about the TCID50 (SARS-CoV-2 [2]) of the same molecule?
**A.** The TCID50 was 1.8 log10/ml.
